“And” between values parts separate entries of the source, which are not always exact repeats. Equal values may be shown once.
How the values were obtained:
Type in all cases: in vitro ADME
[1] = biological target: T1, human CYP3A4 (Homo sapiens, UniProt P08684); test: Steady-state kinetics of tenatoprazole oxidation by recombinant CYP3A4; settings: for kcat of product formation: substrate tenatoprazole (1–500 μM), recombinant CYP3A4 0.20 μM, 37 °C, 5 min, label = product formed
T1 construct: made in house; host or cells: Escherichia coli (membrane fractions)
T1 sequence (P08684 whole entry): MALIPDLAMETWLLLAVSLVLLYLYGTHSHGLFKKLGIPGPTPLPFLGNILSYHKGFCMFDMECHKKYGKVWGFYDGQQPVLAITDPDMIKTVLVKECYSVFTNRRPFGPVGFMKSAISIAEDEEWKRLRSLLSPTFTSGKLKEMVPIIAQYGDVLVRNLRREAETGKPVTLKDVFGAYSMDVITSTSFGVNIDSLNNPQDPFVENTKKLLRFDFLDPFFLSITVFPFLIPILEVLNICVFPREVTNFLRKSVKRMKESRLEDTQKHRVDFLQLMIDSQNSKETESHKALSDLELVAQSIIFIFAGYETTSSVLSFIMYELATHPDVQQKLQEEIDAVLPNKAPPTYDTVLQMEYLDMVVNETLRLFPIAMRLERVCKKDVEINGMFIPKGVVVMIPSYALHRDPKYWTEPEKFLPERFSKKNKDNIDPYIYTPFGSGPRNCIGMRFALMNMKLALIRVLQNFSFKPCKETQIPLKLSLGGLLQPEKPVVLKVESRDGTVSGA
Experimental: Pooled liver microsomes from human samples were obtained from ThermoFisher Scientific (Waltham, MA, USA). […] Membrane fractions expressing both P450 and CPR of E. coli were prepared as described previously and were used for the catalytic activity assays. […] The reaction was started by adding NGS and the incubation was continued for the indicated time at 37 °C. Incubation was then stopped by adding ice-chilled ethyl acetate (0.50 mL) and omeprazole (IS) was added to a final concentration of 20 μM. […] Phenomenex, Torrance, CA, USA). The products formed were analyzed by HPLC at […]. The HPLC profile of the authentic chemicals (i.e., tenatoprazole, tenatoprazole sulfide, and their metabolites) were used to identify the major metabolites of tenatoprazole and tenatoprazole sulfide produced by the recombinant P450s. […] The kinetic parameters (kcat and Km) were determined by using a Michaelis-Menten nonlinear regression analysis with GraphPad Prism (GraphPad Software, San Diego, CA, USA). To further characterize the nature of the metabolites, the reaction mixtures were additionally analyzed by a 6530 Quadrupole Time-of-Flight (QTOF) mass spectrometer (MS) (Agilent, Santa Clara, CA, USA) coupled with a 1290 Infinity ultra-performance liquid chromatography (UPLC) system (Agilent). […] The reaction was initiated by adding NGS at 37 °C. […] Then, the upper layer was transferred to a glass tube and dried under nitrogen stream. The residues were reconstituted in 0.30 mL acetonitrile, then 1 μL samples were injected into an LC-MS system. The analytical column was a Hypersil Gold C18 column (100 × 2.1 mm, 1.9 μm; ThermoFisher Scientific). […] A gradient program was used for HPLC separation, and the flow rate was 0.4 mL/min. […] The column and autosampler were kept at 35 °C and 4 °C, respectively, during analysis. Electrospray ionization was performed in the positive ion mode. The sheath gas flow rate was 8 L/min. The flow rate of drying gas was 12 L/min at 350 °C, and the nebulizer's temperature was set at 350 °C. The capillary voltage was 4500 V in the positive mode, and that of the fragmentor was 175 V. Data acquisition were done over a scan range from 50 m/z to 1000 m/z in the centroid mode. A reference compound (C18H18O6N3P3F24; [M+H]^+ = 922.0098) was used to correct all of the masses. Tandem mass spectrometry (MS/MS) data were acquired in profile mode via autoanalysis for structural characterization with 30 eV of the collision energy.

[2] = biological target: T2, CYP2A6 (Homo sapiens, UniProt P11509); test: Tenatoprazole oxidation by recombinant CYP2A6; settings: substrate tenatoprazole 0.10 mM, 0.20 μM CYP2A6; no apparent formation
T2 construct: made in house; host or cells: Escherichia coli (membrane fractions)
T2 sequence (P11509 1-494): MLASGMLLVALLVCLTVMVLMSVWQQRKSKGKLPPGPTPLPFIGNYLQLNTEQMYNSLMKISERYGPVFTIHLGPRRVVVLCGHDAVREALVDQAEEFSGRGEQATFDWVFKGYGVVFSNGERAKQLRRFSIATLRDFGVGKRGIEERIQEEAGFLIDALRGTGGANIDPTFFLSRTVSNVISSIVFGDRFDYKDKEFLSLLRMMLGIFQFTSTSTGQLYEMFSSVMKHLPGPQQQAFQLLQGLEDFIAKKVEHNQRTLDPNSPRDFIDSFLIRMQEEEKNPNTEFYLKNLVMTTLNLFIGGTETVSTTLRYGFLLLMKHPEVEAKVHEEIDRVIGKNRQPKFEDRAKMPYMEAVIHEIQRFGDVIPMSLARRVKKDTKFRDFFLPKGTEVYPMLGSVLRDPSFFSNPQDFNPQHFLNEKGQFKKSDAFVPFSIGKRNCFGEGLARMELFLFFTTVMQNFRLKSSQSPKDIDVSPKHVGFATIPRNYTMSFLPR
Experimental: (§1) Pooled liver microsomes from human samples were obtained from ThermoFisher Scientific (Waltham, MA, USA). Recombinant human P450s were heterologously expressed in Escherichia coli with a pCW vector containing human P450 cDNA (CYP 3A4, 2C9, 2C19, 1A2, 1B1, 2E1, 2D6, and 2A6) and rat NADPH-P450 reductase (CPR). Membrane fractions expressing both P450 and CPR of E. coli were prepared as described previously and were used for the catalytic activity assays.
(§2) The reaction mixture included 0.20 μM P450, 0.40 μM CPR, and tenatoprazole (0.10 mM) in 0.25 mL of 0.10 M potassium phosphate buffer (pH 7.4). The reaction was started by adding NGS and the incubation was continued for the indicated time at 37 °C. Incubation was then stopped by adding ice-chilled ethyl acetate (0.50 mL) and omeprazole (IS) was added to a final concentration of 20 μM. The mixtures were vortexed for 2 min, centrifuged at 1000× g for 20 min, and then the organic layer was taken for drying under nitrogen gas stream. The residues were dissolved in 180 μL of HPLC mobile phase and 30 μL was injected onto a Gemini C18 column (4.6 × 150 mm, 5 μm; Phenomenex, Torrance, CA, USA). The products formed were analyzed by HPLC at A302. The HPLC profile of the authentic chemicals (i.e., tenatoprazole, tenatoprazole sulfide, and their metabolites) were used to identify the major metabolites of tenatoprazole and tenatoprazole sulfide produced by the recombinant P450s.
(§3) Figure S6. HPLC analyses of the products derived from the oxidation of tenatoprazole catalyzed by recombinant human P450s. The reaction mixture included 0.20 μM P450, 0.40 μM CPR, and 0.10 mM tenatoprazole in 0.25 mL of potassium phosphate buffer (0.10 M, pH 7.4). The reaction was started by adding an NGS at 37 °C for 60 min. (A) CYP1A2; (B) CYP1B1; (C) CYP2A6; (D) CYP2C9; (E) CYP2D6; (F) CYP2E1. The arrows with solid and broken lines indicate the retention times of 5’-OH tenatoprazole (6.6 min) and 5’-OH tenatoprazole sulfide (8.4 min), respectively.
(§4) (1 picture or pasted object on this page, not shown here)

[3] = biological target: T3, CYP2E1 (Homo sapiens, UniProt P05181); test: Tenatoprazole oxidation by recombinant CYP2E1; settings: substrate tenatoprazole 0.10 mM, 0.20 μM CYP2E1; no apparent formation
T3 construct: made in house; host or cells: Escherichia coli (membrane fractions)
T3 sequence (P05181 whole entry): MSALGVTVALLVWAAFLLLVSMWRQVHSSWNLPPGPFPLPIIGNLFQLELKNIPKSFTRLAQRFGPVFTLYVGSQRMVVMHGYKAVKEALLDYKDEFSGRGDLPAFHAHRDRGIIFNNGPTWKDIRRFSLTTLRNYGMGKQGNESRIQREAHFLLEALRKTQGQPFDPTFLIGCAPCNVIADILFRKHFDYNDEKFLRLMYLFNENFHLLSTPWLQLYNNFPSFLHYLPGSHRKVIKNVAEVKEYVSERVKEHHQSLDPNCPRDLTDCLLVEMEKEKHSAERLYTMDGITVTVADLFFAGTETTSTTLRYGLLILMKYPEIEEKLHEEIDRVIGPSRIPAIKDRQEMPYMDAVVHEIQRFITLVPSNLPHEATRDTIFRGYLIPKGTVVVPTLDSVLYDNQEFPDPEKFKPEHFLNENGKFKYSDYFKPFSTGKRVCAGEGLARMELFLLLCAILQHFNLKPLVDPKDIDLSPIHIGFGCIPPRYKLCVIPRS
Experimental: as §1, §2, §3, §4

Row | Structure (SMILES) | fold higher Km of CYP3A4 than CYP2C19 ([1]; 5′-OH tenatoprazole formation from tenatoprazole) | kcat of product formation [1] | formation rate of metabolite [2] | formation rate of metabolite [3]
1 | COc1ccc2[nH]c([S+]([O-])Cc3ncc(CO)c(OC)c3C)nc2n1 (stereo not shown) [5′-OH tenatoprazole, 5′-hydroxy tenatoprazole] | 100 fold | 0.105 s⁻¹ and 0.105 ± 0.005 s⁻¹ | < 0.05 nmol product/min/nmol P450 | < 0.05 nmol product/min/nmol P450
2 | COc1ccc2[nH]c(S(=O)(=O)Cc3ncc(C)c(OC)c3C)nc2n1 [tenatoprazole sulfone] | – | 0.045 s⁻¹ and 0.045 ± 0.013 s⁻¹ | < 0.05 nmol product/min/nmol P450 | < 0.05 nmol product/min/nmol P450

Reference: paper PMC9863764, “Roles of Human Liver Cytochrome P450 Enzymes in Tenatoprazole Metabolism” (Pharmaceutics, 2022)
